From PMC6084503, “Pyrrolo[3,2-c]pyridine derivatives with potential inhibitory effect against FMS kinase: in vitro biological studies” (Journal of Enzyme Inhibition and Medicinal Chemistry, 2018)
Blank lines part the entries; values can stand above or below the molecule they belong to.

How the values were obtained:
[1] = biological target: T1, FMS kinase (Homo sapiens, UniProt P07333); assay: Kinase HotSpot cell-free enzyme assay, FMS kinase; format: biochemical; settings: single-dose concentration of 1 μM
T1 construct: purchased Reaction Biology Corp
T1 sequence (P07333 20-972): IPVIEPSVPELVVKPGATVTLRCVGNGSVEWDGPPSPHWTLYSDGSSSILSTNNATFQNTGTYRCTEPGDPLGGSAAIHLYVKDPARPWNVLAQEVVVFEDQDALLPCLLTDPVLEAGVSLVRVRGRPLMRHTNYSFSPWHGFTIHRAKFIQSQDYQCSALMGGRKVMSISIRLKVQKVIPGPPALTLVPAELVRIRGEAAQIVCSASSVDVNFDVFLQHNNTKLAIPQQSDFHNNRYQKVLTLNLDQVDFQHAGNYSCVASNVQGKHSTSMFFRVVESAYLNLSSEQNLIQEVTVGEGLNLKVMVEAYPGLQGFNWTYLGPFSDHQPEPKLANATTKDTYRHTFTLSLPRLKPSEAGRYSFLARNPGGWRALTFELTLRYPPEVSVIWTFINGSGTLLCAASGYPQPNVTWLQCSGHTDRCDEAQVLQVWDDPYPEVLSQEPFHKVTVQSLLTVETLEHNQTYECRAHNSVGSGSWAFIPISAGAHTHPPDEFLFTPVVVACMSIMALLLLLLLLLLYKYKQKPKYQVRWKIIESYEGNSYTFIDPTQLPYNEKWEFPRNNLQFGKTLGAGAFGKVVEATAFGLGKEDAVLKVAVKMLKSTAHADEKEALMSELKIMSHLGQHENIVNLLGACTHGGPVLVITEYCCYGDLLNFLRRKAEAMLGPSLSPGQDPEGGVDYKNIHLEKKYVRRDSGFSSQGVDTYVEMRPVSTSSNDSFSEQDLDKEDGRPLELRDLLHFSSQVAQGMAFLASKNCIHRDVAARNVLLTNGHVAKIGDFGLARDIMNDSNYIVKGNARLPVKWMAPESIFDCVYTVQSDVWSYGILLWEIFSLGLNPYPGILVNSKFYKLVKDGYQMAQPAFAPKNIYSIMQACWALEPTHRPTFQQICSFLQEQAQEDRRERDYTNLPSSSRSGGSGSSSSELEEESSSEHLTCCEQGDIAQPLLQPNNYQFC

[2] = test system: panel of six ovarian, two prostate, and five breast cancer cell lines; assay: NCI antiproliferative screening, whole panel; format: cell-based; settings: read-out: IC50 values, range over the cancer cell line panel
Description: Compounds 1r and KIST101029 were tested at the National Cancer Institute (NCI, Bethesda, MD) following their standard protocol [https://dtp.cancer.gov/discovery_development/nci-60/methodology.htm].
Due to over-expression of FMS kinase in certain types of tumours such as ovarian, prostate, and breast[5–7] cancers, we decided to test the antiproliferative activity of compound 1r against a panel of six ovarian, two prostate, and five breast cancer cell lines. It was also tested against HS 27 fibroblasts in order to investigate the selectivity indexes. The results were compared with those of KIST101029 as a reference standard.

[3] = biological target: T1, FMS kinase; assay: Kinase HotSpot cell-free enzyme assay, FMS kinase; format: biochemical
Description: (§1) Reaction Biology Corp. Kinase HotSpot^SM service [http://www.reactionbiology.com] was utilised for screening of the target compounds as per the protocol reported in the literature.
Compounds 1a–r were tested in a 10-dose testing mode starting with 81 µM, threefold serial dilutions, against FMS kinase in a cell-free enzyme assay. […] This can be due to occupancy of a hydrophobic pocket with that additional benzoyl moiety and/or formation of additional hydrogen bond by the carbonyl oxygen.

[4] = test system: panel of 40 kinases including FMS; assay: Kinase HotSpot 40-kinase panel, summary over the other kinases; format: biochemical; settings: 1 µM; kinases other than FMS, FLT3 (D835Y) and c-MET
Description: as §1
(§2) Compound 1r was tested against a panel of 40 kinases including FMS. […] Its inhibition percentages against FLT3 (D835Y) and c-MET kinases were 42% and 40%, respectively. So its IC50 values against both of them will be in micromolar scale. […] The inhibition percentages exerted by compound 1r against the other 37 tested kinases were less than 28%.

[5] = biological target: T2, EPHA1 (Homo sapiens, UniProt P21709); assay: Kinase HotSpot 40-kinase panel; format: biochemical; settings: single-dose concentration of 1 μM
T2 construct: purchased Reaction Biology Corp. (Kinase HotSpot)
Description: as §1, §2

[6] = biological target: T3, MLK1 (Homo sapiens, UniProt P80192); assay: Kinase HotSpot 40-kinase panel; format: biochemical; settings: single-dose concentration of 1 μM
T3 construct: purchased Reaction Biology Corp. (Kinase HotSpot)
T3 sequence (P80192 whole entry): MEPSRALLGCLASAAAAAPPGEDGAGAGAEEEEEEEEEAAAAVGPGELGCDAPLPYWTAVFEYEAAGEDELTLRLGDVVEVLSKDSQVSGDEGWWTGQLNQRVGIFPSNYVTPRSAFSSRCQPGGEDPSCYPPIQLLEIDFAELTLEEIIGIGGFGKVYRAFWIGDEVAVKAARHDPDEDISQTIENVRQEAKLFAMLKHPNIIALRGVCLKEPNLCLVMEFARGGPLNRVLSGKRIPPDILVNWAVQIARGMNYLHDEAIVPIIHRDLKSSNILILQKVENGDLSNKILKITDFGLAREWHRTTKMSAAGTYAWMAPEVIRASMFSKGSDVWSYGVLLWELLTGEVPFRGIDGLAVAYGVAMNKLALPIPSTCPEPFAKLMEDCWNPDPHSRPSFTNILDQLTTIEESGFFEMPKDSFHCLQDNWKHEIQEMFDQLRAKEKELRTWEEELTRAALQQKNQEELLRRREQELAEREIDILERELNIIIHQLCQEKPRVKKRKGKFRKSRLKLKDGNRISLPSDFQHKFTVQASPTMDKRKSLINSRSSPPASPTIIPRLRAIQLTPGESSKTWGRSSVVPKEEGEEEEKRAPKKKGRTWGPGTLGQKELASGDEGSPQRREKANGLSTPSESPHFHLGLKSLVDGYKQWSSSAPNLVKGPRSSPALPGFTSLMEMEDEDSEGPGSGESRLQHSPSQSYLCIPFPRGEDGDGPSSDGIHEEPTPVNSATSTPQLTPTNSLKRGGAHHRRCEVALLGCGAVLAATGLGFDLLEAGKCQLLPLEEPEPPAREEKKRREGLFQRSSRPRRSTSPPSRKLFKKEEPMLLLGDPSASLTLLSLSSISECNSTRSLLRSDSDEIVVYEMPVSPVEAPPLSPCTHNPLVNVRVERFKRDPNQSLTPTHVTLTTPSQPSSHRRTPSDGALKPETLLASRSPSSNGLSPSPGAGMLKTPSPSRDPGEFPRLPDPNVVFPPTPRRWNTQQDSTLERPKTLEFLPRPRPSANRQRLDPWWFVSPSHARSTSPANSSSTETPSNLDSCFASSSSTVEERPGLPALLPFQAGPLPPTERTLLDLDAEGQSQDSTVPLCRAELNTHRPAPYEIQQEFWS
Description: as §1, §2

[7] = biological target: T4, PAK2 (Homo sapiens, UniProt Q13177); assay: Kinase HotSpot 40-kinase panel; format: biochemical; settings: single-dose concentration of 1 μM
T4 construct: purchased Reaction Biology Corp. (Kinase HotSpot)
T4 sequence (Q13177 whole entry): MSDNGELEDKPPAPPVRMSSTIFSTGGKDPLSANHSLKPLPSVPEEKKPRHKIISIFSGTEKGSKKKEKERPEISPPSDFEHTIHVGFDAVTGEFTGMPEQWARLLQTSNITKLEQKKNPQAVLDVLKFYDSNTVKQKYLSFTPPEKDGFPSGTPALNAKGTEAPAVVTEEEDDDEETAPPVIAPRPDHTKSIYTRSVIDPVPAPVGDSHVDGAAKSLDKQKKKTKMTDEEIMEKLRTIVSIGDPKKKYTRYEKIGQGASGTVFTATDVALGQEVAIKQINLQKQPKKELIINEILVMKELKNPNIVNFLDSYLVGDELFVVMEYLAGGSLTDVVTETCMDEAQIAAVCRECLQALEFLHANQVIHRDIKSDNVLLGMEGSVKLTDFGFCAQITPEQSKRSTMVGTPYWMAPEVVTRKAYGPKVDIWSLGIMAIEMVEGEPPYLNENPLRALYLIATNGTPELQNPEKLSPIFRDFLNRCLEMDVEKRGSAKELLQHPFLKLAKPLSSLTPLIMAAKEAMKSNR
Description: as §1, §2

[8] = biological target: T5, LCK (Homo sapiens, UniProt P06239); assay: Kinase HotSpot 40-kinase panel; format: biochemical; settings: single-dose concentration of 1 μM
T5 construct: purchased Reaction Biology Corp. (Kinase HotSpot)
Description: as §1, §2

[9] = biological target: T6, ALK (Homo sapiens, UniProt Q9UM73); assay: Kinase HotSpot 40-kinase panel; format: biochemical; settings: single-dose concentration of 1 μM
T6 construct: purchased Reaction Biology Corp. (Kinase HotSpot)
Description: as §1, §2

[10] = biological target: T7, GSK3β (Homo sapiens, UniProt P49841); assay: Kinase HotSpot 40-kinase panel; format: biochemical; settings: single-dose concentration of 1 μM
T7 construct: purchased Reaction Biology Corp. (Kinase HotSpot)
Description: as §1, §2

[11] = biological target: T8, c-SRC (Homo sapiens, UniProt P12931); assay: Kinase HotSpot 40-kinase panel; format: biochemical; settings: single-dose concentration of 1 μM
T8 construct: purchased Reaction Biology Corp. (Kinase HotSpot)
Description: as §1, §2

[12] = biological target: T9, CDK5/p25 (Homo sapiens, UniProt Q00535); assay: Kinase HotSpot 40-kinase panel; format: biochemical; settings: single-dose concentration of 1 μM
T9 construct: purchased Reaction Biology Corp. (Kinase HotSpot)
Description: as §1, §2

[13] = biological target: T10, PDK1 (Homo sapiens, UniProt O15530); assay: Kinase HotSpot 40-kinase panel; format: biochemical; settings: single-dose concentration of 1 μM
T10 construct: purchased Reaction Biology Corp. (Kinase HotSpot)
Description: as §1, §2

[14] = biological target: T11, SYK (Homo sapiens, UniProt P43405); assay: Kinase HotSpot 40-kinase panel; format: biochemical; settings: single-dose concentration of 1 μM
T11 construct: purchased Reaction Biology Corp. (Kinase HotSpot)
Description: as §1, §2

[15] = biological target: T12, TEC (activated) (Homo sapiens, UniProt P42680); assay: Kinase HotSpot 40-kinase panel; format: biochemical; settings: single-dose concentration of 1 μM
T12 construct: purchased Reaction Biology Corp. (Kinase HotSpot)
Description: as §1, §2

[16] = biological target: T13, Aurora A (Homo sapiens, UniProt O14965); assay: Kinase HotSpot 40-kinase panel; format: biochemical; settings: single-dose concentration of 1 μM
T13 construct: purchased Reaction Biology Corp. (Kinase HotSpot)
Description: as §1, §2

[17] = biological target: T14, PLK1 (Homo sapiens, UniProt P53350); assay: Kinase HotSpot 40-kinase panel; format: biochemical; settings: single-dose concentration of 1 μM
T14 construct: purchased Reaction Biology Corp. (Kinase HotSpot)
Description: as §1, §2

[18] = biological target: T15, ABL1 (Homo sapiens, UniProt P00519); assay: Kinase HotSpot 40-kinase panel; format: biochemical; settings: single-dose concentration of 1 μM
T15 construct: purchased Reaction Biology Corp. (Kinase HotSpot)
Description: as §1, §2

[19] = biological target: T16, FGFR1 (Homo sapiens, UniProt P11362); assay: Kinase HotSpot 40-kinase panel; format: biochemical; settings: single-dose concentration of 1 μM
T16 construct: purchased Reaction Biology Corp. (Kinase HotSpot)
Description: as §1, §2

[20] = biological target: T17, JNK1α1 (Homo sapiens, UniProt P45983); assay: Kinase HotSpot 40-kinase panel; format: biochemical; settings: single-dose concentration of 1 μM
T17 construct: purchased Reaction Biology Corp. (Kinase HotSpot)
Description: as §1, §2

[21] = biological target: T18, CaMKI (Homo sapiens, UniProt Q14012); assay: Kinase HotSpot 40-kinase panel; format: biochemical; settings: single-dose concentration of 1 μM
T18 construct: purchased Reaction Biology Corp. (Kinase HotSpot)
Description: as §1, §2

[22] = biological target: T19, DMPK (Homo sapiens, UniProt Q09013); assay: Kinase HotSpot 40-kinase panel; format: biochemical; settings: single-dose concentration of 1 μM
T19 construct: purchased Reaction Biology Corp. (Kinase HotSpot)
T19 sequence (Q09013 whole entry): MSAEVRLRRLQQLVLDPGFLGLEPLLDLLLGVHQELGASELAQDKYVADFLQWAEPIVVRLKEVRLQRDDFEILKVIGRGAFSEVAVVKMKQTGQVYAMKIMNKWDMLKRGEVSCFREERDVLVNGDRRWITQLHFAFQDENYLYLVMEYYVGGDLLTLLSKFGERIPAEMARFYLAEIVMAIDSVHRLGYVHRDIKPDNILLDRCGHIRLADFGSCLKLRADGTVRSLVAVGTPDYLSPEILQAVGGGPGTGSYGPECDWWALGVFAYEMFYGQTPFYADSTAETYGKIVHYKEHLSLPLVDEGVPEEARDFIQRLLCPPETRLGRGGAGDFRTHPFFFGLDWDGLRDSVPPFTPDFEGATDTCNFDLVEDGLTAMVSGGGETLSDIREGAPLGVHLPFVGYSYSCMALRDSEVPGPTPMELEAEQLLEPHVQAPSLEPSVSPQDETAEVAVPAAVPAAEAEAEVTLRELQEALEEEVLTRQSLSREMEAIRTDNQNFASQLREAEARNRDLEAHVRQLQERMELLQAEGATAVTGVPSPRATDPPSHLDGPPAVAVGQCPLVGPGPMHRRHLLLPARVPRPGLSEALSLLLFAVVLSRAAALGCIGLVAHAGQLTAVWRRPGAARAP
Description: as §1, §2

[23] = biological target: T20, BTK (Homo sapiens, UniProt Q06187); assay: Kinase HotSpot 40-kinase panel; format: biochemical; settings: single-dose concentration of 1 μM
T20 construct: purchased Reaction Biology Corp. (Kinase HotSpot)
Description: as §1, §2

[24] = biological target: T21, FLT3 (D835Y) (Homo sapiens, UniProt P36888, D835Y); assay: Kinase HotSpot 40-kinase panel; format: biochemical; settings: single-dose concentration of 1 μM
T21 construct: purchased Reaction Biology Corp. (Kinase HotSpot)
Description: as §1, §2

[25] = biological target: T22, RSK1 (Homo sapiens, UniProt Q15418); assay: Kinase HotSpot 40-kinase panel; format: biochemical; settings: single-dose concentration of 1 μM
T22 construct: purchased Reaction Biology Corp. (Kinase HotSpot)
Description: as §1, §2

[26] = biological target: T23, IR (Homo sapiens, UniProt P06213); assay: Kinase HotSpot 40-kinase panel; format: biochemical; settings: single-dose concentration of 1 μM
T23 construct: purchased Reaction Biology Corp. (Kinase HotSpot)
T23 sequence (P06213 28-1382): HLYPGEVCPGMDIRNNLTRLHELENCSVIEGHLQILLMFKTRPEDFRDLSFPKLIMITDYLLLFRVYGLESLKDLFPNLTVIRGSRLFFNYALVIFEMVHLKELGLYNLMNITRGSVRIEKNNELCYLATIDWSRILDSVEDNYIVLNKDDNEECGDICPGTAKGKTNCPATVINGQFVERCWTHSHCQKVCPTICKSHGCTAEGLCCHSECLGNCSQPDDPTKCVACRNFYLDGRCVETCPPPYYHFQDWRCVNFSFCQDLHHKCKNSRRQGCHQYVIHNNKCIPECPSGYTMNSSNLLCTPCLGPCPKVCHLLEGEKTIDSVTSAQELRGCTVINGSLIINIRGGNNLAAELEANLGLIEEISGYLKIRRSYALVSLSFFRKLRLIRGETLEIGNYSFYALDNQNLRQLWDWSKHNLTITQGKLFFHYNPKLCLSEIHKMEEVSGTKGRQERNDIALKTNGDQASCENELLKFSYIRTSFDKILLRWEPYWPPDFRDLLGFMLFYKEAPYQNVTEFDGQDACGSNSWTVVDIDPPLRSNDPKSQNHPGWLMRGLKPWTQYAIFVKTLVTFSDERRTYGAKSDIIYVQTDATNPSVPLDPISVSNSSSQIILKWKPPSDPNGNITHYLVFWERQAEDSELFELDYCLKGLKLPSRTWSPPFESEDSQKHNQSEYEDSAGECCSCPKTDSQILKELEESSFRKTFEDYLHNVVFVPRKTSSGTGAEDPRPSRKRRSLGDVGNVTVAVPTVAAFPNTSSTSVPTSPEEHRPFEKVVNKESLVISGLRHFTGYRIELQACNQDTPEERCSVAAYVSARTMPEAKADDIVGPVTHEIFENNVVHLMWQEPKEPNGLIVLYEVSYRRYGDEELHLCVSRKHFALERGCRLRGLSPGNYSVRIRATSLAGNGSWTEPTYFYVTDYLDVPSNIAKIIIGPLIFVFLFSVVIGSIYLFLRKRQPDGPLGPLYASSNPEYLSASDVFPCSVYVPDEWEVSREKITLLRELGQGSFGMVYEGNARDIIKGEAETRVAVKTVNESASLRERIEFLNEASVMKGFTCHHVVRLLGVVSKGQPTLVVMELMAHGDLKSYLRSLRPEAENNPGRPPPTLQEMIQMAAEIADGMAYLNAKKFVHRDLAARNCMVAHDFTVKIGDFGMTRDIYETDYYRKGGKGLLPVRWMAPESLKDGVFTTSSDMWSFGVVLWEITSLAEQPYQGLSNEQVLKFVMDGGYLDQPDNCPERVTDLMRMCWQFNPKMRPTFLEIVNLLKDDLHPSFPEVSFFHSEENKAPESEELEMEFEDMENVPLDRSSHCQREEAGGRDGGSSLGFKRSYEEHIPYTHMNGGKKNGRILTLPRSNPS
Description: as §1, §2

[27] = biological target: T24, ROS/ROS1 (Homo sapiens, UniProt P08922); assay: Kinase HotSpot 40-kinase panel; format: biochemical; settings: single-dose concentration of 1 μM
T24 construct: purchased Reaction Biology Corp. (Kinase HotSpot)
Description: as §1, §2

[28] = biological target: T25, PIM1 (Homo sapiens, UniProt P11309); assay: Kinase HotSpot 40-kinase panel; format: biochemical; settings: single-dose concentration of 1 μM
T25 construct: purchased Reaction Biology Corp. (Kinase HotSpot)
T25 sequence (P11309 whole entry): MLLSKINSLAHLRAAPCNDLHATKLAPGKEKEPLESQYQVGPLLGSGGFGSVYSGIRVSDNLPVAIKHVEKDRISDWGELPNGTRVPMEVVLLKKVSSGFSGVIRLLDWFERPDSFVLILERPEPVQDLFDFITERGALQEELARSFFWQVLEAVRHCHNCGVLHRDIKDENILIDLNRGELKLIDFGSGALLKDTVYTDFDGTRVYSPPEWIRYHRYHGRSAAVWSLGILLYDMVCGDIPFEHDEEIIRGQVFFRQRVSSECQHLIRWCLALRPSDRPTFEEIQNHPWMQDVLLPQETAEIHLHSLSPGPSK
Description: as §1, §2

% Inhibition [1]: 81% | IC50 ([3]; 10-dose duplicate assay, mean ± SEM, starting with 81 µM, threefold serial dilution, read-out: IC50 against FMS kinase): 30 ± 20 nM | Potency against FMS kinase relative to KIST101029 ([3]; ratio of IC50 values, more potent than lead compound KIST101029): 3.2 times | Inhibition percentages against the other 37 tested kinases [4]: less than 28% | % Inhibition [5]: −10% | % Inhibition [6]: −4% | % Inhibition [7]: −9% | % Inhibition [8]: −7% | % Inhibition [9]: 0% | % Inhibition [10]: −3% | % Inhibition [11]: −4% | % Inhibition [12]: −5% | % Inhibition [13]: −7% | % Inhibition [14]: −5% | % Inhibition [15]: 10% | % Inhibition [16]: −2% | % Inhibition [17]: 7% | % Inhibition [18]: 15% | % Inhibition [19]: −3% | % Inhibition [20]: −5% | % Inhibition [21]: −23% | % Inhibition [22]: −1% | % Inhibition [23]: 1% | % Inhibition [24]: 42% | % Inhibition [25]: −4% | % Inhibition [26]: 5% | % Inhibition [27]: −4% | % Inhibition [28]: −6%
SMILES: Nc1nccc2c1ccn2-c1cccc(NC(=O)c2ccc(N3CCOCC3)c(C(F)(F)F)c2)c1 [Compound 1r]
IC50 [2]: 150 to 1780 nM

inhibition at 1 µM [1]: 90% | inhibition at 1 µM [5]: 9% | inhibition at 1 µM [6]: -1% | inhibition at 1 µM [7]: 2% | inhibition at 1 µM [8]: 33% | inhibition at 1 µM [9]: 11% | inhibition at 1 µM [10]: 4% | inhibition at 1 µM [11]: 10% | inhibition at 1 µM [12]: 8% | inhibition at 1 µM [13]: -1% | inhibition at 1 µM [14]: 6% | inhibition at 1 µM [15]: 14% | inhibition at 1 µM [16]: 21% | inhibition at 1 µM [17]: 4% | inhibition at 1 µM [18]: 41% | inhibition at 1 µM [19]: 6% | inhibition at 1 µM [20]: -1% | inhibition at 1 µM [21]: -1% | inhibition at 1 µM [22]: -18% | inhibition at 1 µM [23]: 7% | inhibition at 1 µM [24]: 16% | inhibition at 1 µM [25]: 8% | inhibition at 1 µM [26]: 2% | inhibition at 1 µM [27]: 19% | inhibition at 1 µM [28]: 10%
SMILES: O=C(Nc1cccc(-n2ccc3c(NC(=O)c4ccccc4)nccc32)c1)c1ccc(N2CCOCC2)c(C(F)(F)F)c1 [KIST101029, reference compound]
